“Also recorded” adds a separate entry of the source. Read-outs that look alike come from different tables or passages of the source.
Experiments:
[1] = system: A549 cells; format: cell-based, human; conditions: for induction of phospholipidosis: NBD-PE staining, A549 cells
[2] = system: SARS-CoV-2 infected A549-ACE2 cells; format: cell-based
[3] = system: SARS-CoV-2; test: Cellular antiviral assays against SARS-CoV-2; format: cell-based
[4] = system: SARS-CoV-2; conditions: for effect on lung viral titer / viral propagation in mice: in vivo
[5] = target: human sigma-1 receptor (Homo sapiens, UniProt Q99720); format: binding
[6] = target: human sigma-2 receptor (Homo sapiens, UniProt Q5BJF2); conditions: radioligand displacement, fractional binding at 1 μM (Fig. 2E)
Chain of human sigma-2 receptor (Q5BJF2 whole entry): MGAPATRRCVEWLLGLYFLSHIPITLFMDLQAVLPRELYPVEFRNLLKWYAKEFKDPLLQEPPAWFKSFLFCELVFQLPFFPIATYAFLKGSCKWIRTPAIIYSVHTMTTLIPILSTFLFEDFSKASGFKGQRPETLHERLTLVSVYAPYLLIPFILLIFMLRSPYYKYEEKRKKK

Chain of human sigma-1 receptor (Q99720 whole entry): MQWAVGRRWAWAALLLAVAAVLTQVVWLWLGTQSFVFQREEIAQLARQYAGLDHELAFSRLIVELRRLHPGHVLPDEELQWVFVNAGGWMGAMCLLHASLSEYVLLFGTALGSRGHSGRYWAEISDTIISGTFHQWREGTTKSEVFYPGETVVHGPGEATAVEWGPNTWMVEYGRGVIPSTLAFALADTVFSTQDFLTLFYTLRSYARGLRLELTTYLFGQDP

`CN1CCC[C@@H]1CCO[C@](C)(c1ccccc1)c1ccc(Cl)cc1` [Clemastine] was tested, and the “phospholipidosis (DIPL)” value [1] was > 50 % of amiodarone.

With `CCN(CCO)CCCC(C)Nc1ccnc2cc(Cl)ccc12` (stereo not shown) [Hydroxychloroquine] the “NBD-PE aggregates vs DMSO” value [2] was “substantial increases in NBD-PE aggregates”.

In the case of `CC1CCN(CCCC(=O)c2ccc(F)cc2)CC1` [Melperone], the “induction of phospholipidosis” value [1] is reported as “did not induce phospholipidosis; also recorded: non-phospholipidosis inducing” and the “antiviral activity against SARS-CoV-2 in cells” value (from here on “antiviral activity”) [3] is reported as “not antiviral; also recorded: no measurable antiviral effects”.

For `Cc1cc2c(s1)Nc1ccccc1N=C2N1CCN(C)CC1` [Olanzapine], the phospholipidosis inducer class ([1]; DIPL relative to amiodarone) was “medium (key: > 50% of the strong phospholipidosis inducer amiodarone; medium: 50% > DIPL > 25% of amiodarone)” and the “induction of phospholipidosis” value [1] was “did induce phospholipidosis”.

`CNCC[C@H](Oc1cccc2ccccc12)c1cccs1` [Duloxetine] was tested, and the phospholipidosis inducer class [1] was “strong (key: > 50% of the strong phospholipidosis inducer amiodarone; medium: 50% > DIPL > 25% of amiodarone)”.

`CN[C@H]1CC[C@@H](c2ccc(Cl)c(Cl)c2)c2ccccc21` [Sertraline] was tested, and the “phospholipidosis (DIPL)” value [1] was > 50 % of amiodarone, the “NBD-PE aggregates vs DMSO” value [2] was “substantial increases in NBD-PE aggregates” and the “antiviral activity” value [3] was “mid-to high-nM activities against viral replication”. The “effect on lung viral titer / viral propagation in mice” value [4] was “no substantial effect on viral propagation”.

For `CC(C)(C)c1ccc(C(=O)CCCN2CCC(OC(c3ccccc3)c3ccccc3)CC2)cc1` [Ebastine], the “induction of phospholipidosis” value [1] was “confirmed phospholipidosis-inducing activity”.

With `CCCCc1oc2ccccc2c1C(=O)c1cc(I)c(OCCN(CC)CC)c(I)c1` [Amiodarone] the “NBD-PE aggregates vs DMSO” value [2] was “substantial increases in NBD-PE aggregates”, the “antiviral activity” value [3] was “mid-to high-nM activities against viral replication” and the “effect on lung viral titer / viral propagation in mice” value [4] was “no substantial effect on viral propagation”.

With `COc1cccc2c1CCCC2CCCN1CCN(C2CCCCC2)CC1` (stereo not shown) [PB28] the “sigma-1 binding” value [5] was “strong ligand of both sigma-1 and sigma-2”, the “sigma-2 binding” value [6] was “strong ligand of both sigma-1 and sigma-2” and the “induction of phospholipidosis” value [1] was “both induce phospholipidosis”. For the same compound, the “NBD-PE aggregates vs DMSO” value [2] was “substantial increases in NBD-PE aggregates” and the “effect on lung viral titer / viral propagation in mice” value [4] was “no substantial effect on viral propagation”.

For `CC/C(=C(\c1ccccc1)c1ccc(OCCN(C)C)cc1)c1ccccc1` [Tamoxifen], the “antiviral activity” value [3] was “mid-to high-nM activities against viral replication” and the “effect on lung viral titer / viral propagation in mice” value [4] was “no substantial effect on viral propagation”.

`CN1CCC(CN2c3ccccc3Sc3ccccc32)C1` (stereo not shown) [Methdilazine] was tested, and the phospholipidosis inducer class ([1]; DIPL relative to amiodarone) was “medium (key: > 50% of the strong phospholipidosis inducer amiodarone; medium: 50% > DIPL > 25% of amiodarone)”.

For `O=C1NCN(c2ccccc2)C12CCN(CCCC(c1ccc(F)cc1)c1ccc(F)cc1)CC2` [Fluspirilene], the phospholipidosis inducer class ([1]; DIPL relative to amiodarone) was “medium (key: > 50% of the strong phospholipidosis inducer amiodarone; medium: 50% > DIPL > 25% of amiodarone)”.

In the case of `CC[C@H]1OC(=O)[C@H](C)[C@@H](O[C@H]2C[C@@](C)(OC)[C@@H](O)[C@H](C)O2)[C@H](C)[C@@H](O[C@@H]2O[C@H](C)C[C@H](N(C)C)[C@H]2O)[C@](C)(O)C[C@@H](C)CN(C)[C@H](C)[C@@H](O)[C@]1(C)O` [Azithromycin], the “induction of phospholipidosis” value [1] is reported as “confirmed phospholipidosis-inducing activity”.

For `Cc1ccccc1NC(=N)Nc1ccccc1C` [DTG, ditolylguanidine], the “induction of phospholipidosis” value [1] was “did not induce phospholipidosis” and the “antiviral activity” value [3] was “not antiviral; also recorded: no measurable antiviral effects”.

In the case of `COc1cc2c(cc1OC)CN(CCc1ccc(NC(=O)c3cccc4c(=O)c5cccc(OC)c5[nH]c34)cc1)CC2` [Elacridar], the “induction of phospholipidosis” value [1] is reported as “non-phospholipidosis inducing”, the “effect on lung viral titer / viral propagation in mice” value [4] is reported as “modest antiviral effect” and the “dose above which mice exhibited toxicities” value ([4]; mice, i.p. once per day) is reported as “higher than 3 mg/kg”.

For `Cc1c2ccncc2c(C)c2c1[nH]c1ccccc12` [Ellipticine], the phospholipidosis inducer class ([1]; DIPL relative to amiodarone) was “medium (key: > 50% of the strong phospholipidosis inducer amiodarone; medium: 50% > DIPL > 25% of amiodarone)” and the “induction of phospholipidosis” value [1] was “confirmed phospholipidosis-inducing activity”.

In the case of `CCSc1ccc2c(c1)N(CCCN1CCN(C)CC1)c1ccccc1S2` [Thiethylperazine], the phospholipidosis inducer class ([1]; DIPL relative to amiodarone) is reported as “medium (key: > 50% of the strong phospholipidosis inducer amiodarone; medium: 50% > DIPL > 25% of amiodarone)”.

In the case of `CN(C)CCOc1ccc(/C(=C(/CCCl)c2ccccc2)c2ccccc2)cc1` [Toremifene], the phospholipidosis inducer class ([1]; DIPL relative to amiodarone) is reported as “strong (key: > 50% of the strong phospholipidosis inducer amiodarone; medium: 50% > DIPL > 25% of amiodarone)”.

In the case of `COc1cc2nc(N3CCCN(C)CC3)nc(NC3CCN(Cc4ccccc4)CC3)c2cc1OC` [Bix 01294], the “induction of phospholipidosis” value [1] is reported as “confirmed phospholipidosis-inducing activity”, the “NBD-PE aggregates vs DMSO” value [2] is reported as “substantial increases in NBD-PE aggregates” and the “SARS-CoV-2 spike protein signal” value [2] is reported as “nearly complete loss of spike protein signal”.
